Measured values as given in PubChem BioAssay (NCI).
“And” between values parts separate entries of the source, which are not always exact repeats. Identical values can stand only once.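 Following 48 hours of exposure in 96-well plates, responses at five concentrations were used to interpolate endpoints linearly. Here, GI50 denotes the concentration required for 50% inhibition of growth. Definition used: TGI = concentration required for complete inhibition of growth.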

Assays:
Experiment in all cases: DTP human tumour cell line panel, 48 h
TK-10 renal = test system: TK-10 renal
K-562 leukemia = test system: K-562 leukemia
HOP-18 NSCLC = test system: HOP-18 NSCLC
SNB-78 CNS = test system: SNB-78 CNS
DMS 273 small cell lung = test system: DMS 273 small cell lung
KM20L2 colon = test system: KM20L2 colon
SK-MEL-2 melanoma = test system: SK-MEL-2 melanoma
786-0 renal = test system: 786-0 renal
EKVX NSCLC = test system: EKVX NSCLC
XF 498 CNS = test system: XF 498 CNS
HCT-15 colon = test system: HCT-15 colon
SW-620 colon = test system: SW-620 colon
NCI/ADR-RES ovarian = test system: NCI/ADR-RES ovarian

Compound | TGI (TK-10 renal) | TGI (K-562 leukemia) | TGI (HOP-18 NSCLC) [µM] | TGI (SNB-78 CNS) [µM] | TGI (DMS 273 small cell lung) | TGI (KM20L2 colon) [µM] | TGI (SK-MEL-2 melanoma) [µM] | TGI (786-0 renal) | TGI (EKVX NSCLC) [µM] | TGI (XF 498 CNS) [µM] | TGI (HCT-15 colon) [µM] | TGI (SW-620 colon) | TGI (NCI/ADR-RES ovarian) [µM] | GI50 (TK-10 renal) [nM]
CCOC(OCC)C(CC)[Se]c1ccccc1 (configuration not stated) | > 100 µM | > 100 µM | > 100 | > 100 | 28.4 µM | 38.2 | > 100 | > 100 µM | > 100 | > 100 | 35 |  |  | 
COc1ccc(C2=C(Cl)c3cc(OC)c(OC)cc3C2)cc1OC |  | > 100 µM | > 100 | > 100 | > 100 µM | > 100 |  | > 100 µM | > 100 | > 100 | > 100 | > 100 µM |  | 
Cc1ccc(C#CS(=O)(=O)C(F)(F)F)cc1 |  | > 100 µM | > 100 | > 100 | > 100 µM | > 100 | > 100 |  | > 100 | > 100 | > 100 | > 100 µM | > 100 | 
Cc1ccc(NC(=O)/C(=N/NC(=O)C[N+](C)(C)C)c2nc3ccccc3[nH]c2=O)cc1 | > 100 µM |  | > 100 | > 100 | > 100 µM | > 100 | > 100 | > 100 µM | > 100 |  | > 100 | 33.8 µM |  | 
Cn1cnc(SC2=C3C(=O)C=C4S[C@H]5C[C@]42c2c(c(O)c4c6c2=[N+]3CCC=6C=N4)N5)c1CC(N)C(=O)O (some centres not stated) | > 100 µM | 41.3 µM | > 100 | 40.9 | 26 µM | 16.6 | 28.2 | 59.7 µM | 32.9 | 28.7 | > 100 | 18.5 µM |  | 
O=Cc1c(Br)[nH]c2ccccc12 |  | > 100 µM | > 100 | > 100 | > 100 µM | > 100 | > 100 |  | > 100 | > 100 | > 100 | > 100 µM | > 100 | 
COc1ccc(CCCN2c3ccccc3Sc3ccccc32)cc1 | > 100 µM | > 100 µM | > 100 | > 100 | > 100 µM | > 100 | > 100 | > 100 µM | > 100 | > 100 | > 100 | > 100 µM |  | 
COc1cc(C(O)C(=O)c2cnc3cc([N+](=O)[O-])ccc3n2)ccc1O (configuration not stated) | > 100 µM | > 100 µM |  |  | > 100 µM | > 100 | > 100 | > 100 µM | > 100 | > 100 | > 100 | > 100 µM |  | 
O=C(NN1C(=O)C(Cl)C1c1ccccc1Cl)c1ccccc1O (configuration not stated) | > 100 µM | > 100 µM | > 100 | > 100 |  |  | > 100 | > 100 µM |  | > 100 | > 100 |  |  | 
O=C(Nc1ccc(Sc2ccc(N=Nc3c(O)c(S(=O)(=O)O)cc4cc(S(=O)(=O)O)ccc34)cc2)cc1)c1ccc(N=Nc2c(O)c(S(=O)(=O)O)cc3cc(S(=O)(=O)O)ccc23)cc1 | > 100 µM | > 100 µM | 79.7 | > 100 | > 100 µM | > 100 | 96.8 | > 100 µM | > 100 | > 100 | 28 | > 100 µM |  | 
Cn1nc2ccc3nccc(NCCNCCO)c3c2n1 | > 100 µM | > 100 µM |  | > 100 |  | > 100 |  | > 100 µM |  | > 100 | > 100 | > 100 µM |  | 
COc1cc2c(c(OC)c1OC)-c1ccc(SC)c(=O)cc1[C@@H](NCc1cccc([N+](=O)[O-])c1)CC2 | > 100 µM | 2.39 µM | > 100 | > 100 |  | < 0.01 |  | 34.4 µM | > 100 |  |  | > 100 µM |  | 
O=NN1C(c2ccccc2)CCCC1c1ccccc1 (configuration not stated) |  | > 100 µM | > 100 | > 100 | > 100 µM | > 100 | > 100 |  | 99.1 | 87.5 | > 100 | > 100 µM | > 100 | 
CCOC1NC(/N=C/c2ccc(OC)cc2)=C(C#N)C1C#N (configuration not stated) | > 100 µM | > 100 µM |  |  |  |  | > 100 | > 100 µM | > 100 |  | > 100 | > 100 µM | > 100 | 
CC1=NN(C(=O)Cc2ccccc2)C(=O)/C1=C\c1ccccc1O | > 100 µM | > 100 µM |  | > 100 |  | > 100 | > 100 | > 100 µM | > 100 | > 100 | > 100 | > 100 µM |  | 
Cc1cn([C@@H]2C[C@H](CO)[C@@H]2O)c(=O)[nH]c1=O | > 100 µM | > 100 µM |  |  |  |  | > 100 | > 100 µM | > 100 |  | > 100 | > 100 µM | > 100 | 
OC(C1CCCCCCCCCC1)C(O)C1CCCCCCCCCC1 (configuration not stated) | > 100 µM | > 100 µM |  |  |  |  | > 100 | > 100 µM | > 100 |  | > 100 | > 100 µM | > 100 | 
COc1cc2c(c(OC)c1OC)-c1ccc(SC)c(=O)cc1[C@@H](NC(=O)c1ccc([N+](=O)[O-])cc1)CC2 | 25 µM and > 100 µM | 25 µM and > 100 µM |  | 25 | 25 µM and > 100 µM |  |  | 15.6 µM and 30.7 µM | 25 | 25 |  | 25 µM and > 100 µM |  | 34.4
O=C(c1ccccc1O)c1cc(-c2ncc3c(=O)c4ccccc4oc3n2)c(-c2ccccc2O)[nH]c1=O |  | 75.1 µM | > 100 | > 88.1 | 88.3 µM |  | 46.3 |  | > 92 | 67.9 | 71 | > 77.1 µM | > 87.6 | 
